In patent US7659404B2, “Broad spectrum 2-(substituted-amino)-benzothiazole sulfonamide HIV protease inhibitors” (Tibotec Pharmaceuticals Ltd., priority 2001, dated 2010):

Tests used:
[1] = system: clinically isolated HIV strain L; assay: Antiviral spectrum, cellular assay (fold resistance), strain L; type: cell-based; conditions: FR=EC50(mutant strain)/EC50(HIV-1 strain LAI)
Procedure: (§1) HIV- or mock-infected MT4 cells were incubated for five days in the presence of various concentrations of the inhibitor. At the end of the incubation period, all HIV-infected cells have been killed by the replicating virus in the control cultures in the absence of any inhibitor. Cell viability is measured by measuring the concentration of MTT, a yellow, water soluble tetrazolium dye that is converted to a purple, water insoluble formazan in the mitochondria of living cells only. Upon solubilization of the resulting formazan crystals with isopropanol, the absorbance of the solution is monitored at 540 nm. The values correlate directly to the number of living cells remaining in the culture at the completion of the five day incubation. The inhibitory activity of the compound was monitored on the virus-infected cells and was expressed as EC50 and EC90. These values represent the amount of the compound required to protect 50% and 90%, respectively, of the cells from the cytopathogenic effect of the virus. The toxicity of the compound was measured on the mock-infected cells and was expressed as CC50, which represents the concentration of compound required to inhibit the growth of the cells by 50%. The selectivity index (SI) (ratio CC50/EC50) is an indication of the selectivity of the anti-HIV activity of the inhibitor.
(§2) Because of the increasing emergence of drug resistant HIV strains, the present compounds were tested for their potency against clinically isolated HIV strains harboring several mutations. These mutations are associated with resistance to protease inhibitors and result in viruses that show various degrees of phenotypic cross-resistance to the currently commercially available drugs such as for instance saquinavir, ritonavir, nelfinavir, indinavir and amprenavir.
(§3) As a measure of the broad spectrum activity of the present compounds, the fold resistance (FR) defined as FR=EC50(mutant strain)/EC50(HIV-1 strain LAI).

[2] = system: clinically isolated HIV strain E; assay: Antiviral spectrum, cellular assay (fold resistance), strain E; type: cell-based; conditions: FR=EC50(mutant strain)/EC50(HIV-1 strain LAI)
Procedure: as §1, §2, §3

[3] = system: clinically isolated HIV strain O; type: cell-based; conditions: FR=EC50(mutant strain)/EC50(HIV-1 strain LAI)
Procedure, shortened: (§4)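 MT4 cells, HIV or mock infection, 5 d with compound dilutions; MTT readout, formazan in isopropanol, A540. EC50/EC90 = conc. protecting 50/90% of cells from CPE; CC50 from mock-infected cells. FR = EC50 mutant/EC50 LAI.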

[4] = system: clinically isolated HIV strain J; type: cell-based; conditions: FR=EC50(mutant strain)/EC50(HIV-1 strain LAI)
Procedure, shortened: as §4

[5] = system: clinically isolated HIV strain T; type: cell-based; conditions: FR=EC50(mutant strain)/EC50(HIV-1 strain LAI)
Procedure, shortened: as §4

[6] = system: clinically isolated HIV strain I; type: cell-based; conditions: FR=EC50(mutant strain)/EC50(HIV-1 strain LAI)
Procedure, shortened: as §4

[7] = system: clinically isolated HIV strain H; type: cell-based; conditions: FR=EC50(mutant strain)/EC50(HIV-1 strain LAI)
Procedure, shortened: as §4

[8] = system: clinically isolated HIV strain G; assay: Antiviral spectrum, cellular assay (fold resistance), strain G; type: cell-based; conditions: FR=EC50(mutant strain)/EC50(HIV-1 strain LAI)
Procedure: as §1, §2, §3

[9] = system: clinically isolated HIV strain R; assay: Antiviral spectrum, cellular assay (fold resistance), strain R; type: cell-based; conditions: FR=EC50(mutant strain)/EC50(HIV-1 strain LAI)
Procedure: as §1, §2, §3

[10] = system: clinically isolated HIV strain C; assay: Antiviral spectrum, cellular assay (fold resistance), strain C; type: cell-based; conditions: FR=EC50(mutant strain)/EC50(HIV-1 strain LAI)
Procedure: as §1, §2, §3

[11] = system: clinically isolated HIV strain K; assay: Antiviral spectrum, cellular assay (fold resistance), strain K; type: cell-based; conditions: FR=EC50(mutant strain)/EC50(HIV-1 strain LAI)
Procedure: as §1, §2, §3

[12] = system: clinically isolated HIV strain P; assay: Antiviral spectrum, cellular assay (fold resistance), strain P; type: cell-based; conditions: FR=EC50(mutant strain)/EC50(HIV-1 strain LAI)
Procedure: as §1, §2, §3

[13] = system: clinically isolated HIV strain A; assay: Antiviral spectrum, cellular assay (fold resistance), strain A; type: cell-based; conditions: FR=EC50(mutant strain)/EC50(HIV-1 strain LAI)
Procedure: as §1, §2, §3

[14] = system: clinically isolated HIV strain B; assay: Antiviral spectrum, cellular assay (fold resistance), strain B; type: cell-based; conditions: FR=EC50(mutant strain)/EC50(HIV-1 strain LAI)
Procedure: as §1, §2, §3

[15] = system: virus strain S (R13080); assay: microbe, parasite or virus in culture; type: cell-based, HIV; conditions: FR=EC50(mutant strain)/EC50(HIV-1 strain LAI); strain S
Procedure, shortened: as §4

[16] = system: virus strain F (R13025); assay: microbe, parasite or virus in culture; type: cell-based, HIV; conditions: FR=EC50(mutant strain)/EC50(HIV-1 strain LAI); strain F
Procedure, shortened: as §4

[17] = system: clinically isolated HIV strain D; assay: Antiviral spectrum, cellular assay (fold resistance), strain D; type: cell-based; conditions: FR=EC50(mutant strain)/EC50(HIV-1 strain LAI)
Procedure: as §1, §2, §3

[18] = system: clinically isolated HIV strain Q; assay: Antiviral spectrum, cellular assay (fold resistance), strain Q; type: cell-based; conditions: FR=EC50(mutant strain)/EC50(HIV-1 strain LAI)
Procedure: as §1, §2, §3

[19] = system: clinically isolated HIV strain N; assay: Antiviral spectrum, cellular assay (fold resistance), strain N; type: cell-based; conditions: FR=EC50(mutant strain)/EC50(HIV-1 strain LAI)
Procedure: as §1, §2, §3

[20] = system: clinically isolated HIV strain M; assay: Antiviral spectrum, cellular assay (fold resistance), strain M; type: cell-based; conditions: FR=EC50(mutant strain)/EC50(HIV-1 strain LAI)
Procedure: as §1, §2, §3

CC(C)CN(CC(O)C(Cc1ccccc1)NC(=O)OC1COC2OCCC12)S(=O)(=O)c1ccc2nc(NC(=O)CN3CCCC3)sc2c1 (mixture of isomers) [Compound 7]
fold resistance (FR), strain L [1]: 0.1 | fold resistance (FR), strain E [2]: 0.3 | fold resistance (FR), strain O [3]: 0.4 | fold resistance (FR), strain J [4]: 0.4 | fold resistance (FR), strain T [5]: 12.4 | fold resistance (FR), strain I [6]: 0.5 | fold resistance (FR), strain H [7]: 0.5 | fold resistance (FR), strain G [8]: 0.2 | fold resistance (FR), strain R [9]: 0.4 | fold resistance (FR), strain C [10]: 0.5 | fold resistance (FR), strain K [11]: 0.3 | fold resistance (FR), strain P [12]: 0.1 | fold resistance (FR), strain A [13]: 0.2 | fold resistance (FR), strain B [14]: 0.3 | fold resistance (FR), strain S [15]: 2.0 | fold resistance (FR), strain F [16]: 0.5 | fold resistance (FR), strain D [17]: 0.5 | fold resistance (FR), strain Q [18]: 0.4 | fold resistance (FR), strain N [19]: 0.5 | fold resistance (FR), strain M [20]: 0.1

CC(=O)N(C)c1nc2ccc(S(=O)(=O)N(CC(C)C)CC(O)C(Cc3ccccc3)NC(=O)OC3COC4OCCC34)cc2s1 (mixture of isomers) [Compound 9]
fold resistance (FR), strain L [1]: 0.7 | fold resistance (FR), strain E [2]: 2.3 | fold resistance (FR), strain O [3]: 3.7 | fold resistance (FR), strain J [4]: 6.2 | fold resistance (FR), strain T [5]: 550.9 | fold resistance (FR), strain I [6]: 2.3 | fold resistance (FR), strain H [7]: 6.7 | fold resistance (FR), strain G [8]: 1.5 | fold resistance (FR), strain R [9]: 1.2 | fold resistance (FR), strain C [10]: 1.6 | fold resistance (FR), strain K [11]: 1.0 | fold resistance (FR), strain P [12]: 0.2 | fold resistance (FR), strain A [13]: 1.5 | fold resistance (FR), strain B [14]: 1.5 | fold resistance (FR), strain S [15]: 29.3 | fold resistance (FR), strain F [16]: 13.0 | fold resistance (FR), strain D [17]: 5.7 | fold resistance (FR), strain Q [18]: 1.8 | fold resistance (FR), strain N [19]: 1.5 | fold resistance (FR), strain M [20]: 0.5

CC(C)CN(CC(O)C(Cc1ccccc1)NC(=O)OC1COC2OCCC12)S(=O)(=O)c1ccc2nc(NC(=O)CN3CCOCC3)sc2c1 (mixture of isomers) [Compound 10]
fold resistance (FR), strain L [1]: 0.2 | fold resistance (FR), strain E [2]: 0.4 | fold resistance (FR), strain O [3]: 0.4 | fold resistance (FR), strain J [4]: 0.3 | fold resistance (FR), strain T [5]: 4.9 | fold resistance (FR), strain I [6]: 0.4 | fold resistance (FR), strain H [7]: 0.4 | fold resistance (FR), strain G [8]: 0.5 | fold resistance (FR), strain R [9]: 0.3 | fold resistance (FR), strain C [10]: 0.6 | fold resistance (FR), strain K [11]: 0.3 | fold resistance (FR), strain P [12]: 0.3 | fold resistance (FR), strain A [13]: 0.4 | fold resistance (FR), strain B [14]: 0.4 | fold resistance (FR), strain S [15]: 0.5 | fold resistance (FR), strain F [16]: 0.5 | fold resistance (FR), strain D [17]: 0.5 | fold resistance (FR), strain Q [18]: 0.3 | fold resistance (FR), strain N [19]: 0.0 | fold resistance (FR), strain M [20]: 0.3

CC(C)CN(C[C@@H](O)[C@H](Cc1ccccc1)NC(=O)O[C@H]1CO[C@H]2OCC[C@H]21)S(=O)(=O)c1ccc2nc(NC(=O)CN3CCCC3)sc2c1.O=C(O)/C=C/C(=O)O [Compound 13]
fold resistance (FR), strain L [1]: 0.1 | fold resistance (FR), strain E [2]: 0.2 | fold resistance (FR), strain O [3]: 0.3 | fold resistance (FR), strain J [4]: 0.2 | fold resistance (FR), strain T [5]: 5.8 | fold resistance (FR), strain I [6]: 0.3 | fold resistance (FR), strain H [7]: 0.6 | fold resistance (FR), strain G [8]: 0.2 | fold resistance (FR), strain R [9]: 0.2 | fold resistance (FR), strain C [10]: 0.2 | fold resistance (FR), strain K [11]: 0.2 | fold resistance (FR), strain P [12]: 0.2 | fold resistance (FR), strain A [13]: 0.2 | fold resistance (FR), strain B [14]: 0.2 | fold resistance (FR), strain S [15]: 1.0 | fold resistance (FR), strain F [16]: 0.6 | fold resistance (FR), strain D [17]: 0.2 | fold resistance (FR), strain Q [18]: 0.4 | fold resistance (FR), strain N [19]: 1.0 | fold resistance (FR), strain M [20]: 0.2

CC(C)CN(C[C@@H](O)[C@H](Cc1ccccc1)NC(=O)O[C@H]1CO[C@H]2OCC[C@H]21)S(=O)(=O)c1ccc2nc(NC(=O)CN3CCCC3)sc2c1.Cl [Compound 14]
fold resistance (FR), strain L [1]: 0.1 | fold resistance (FR), strain E [2]: 0.3 | fold resistance (FR), strain O [3]: 0.3 | fold resistance (FR), strain J [4]: 0.3 | fold resistance (FR), strain T [5]: 5.9 | fold resistance (FR), strain I [6]: 0.4 | fold resistance (FR), strain H [7]: 0.5 | fold resistance (FR), strain G [8]: 0.2 | fold resistance (FR), strain R [9]: 0.2 | fold resistance (FR), strain C [10]: 0.2 | fold resistance (FR), strain K [11]: 0.2 | fold resistance (FR), strain P [12]: 0.2 | fold resistance (FR), strain A [13]: 0.2 | fold resistance (FR), strain B [14]: 0.2 | fold resistance (FR), strain S [15]: 0.7 | fold resistance (FR), strain F [16]: 0.4 | fold resistance (FR), strain D [17]: 0.2 | fold resistance (FR), strain Q [18]: 0.3 | fold resistance (FR), strain N [19]: 0.9 | fold resistance (FR), strain M [20]: 0.2

CC(C)CN(C[C@@H](O)[C@H](Cc1ccccc1)NC(=O)O[C@H]1CO[C@H]2OCC[C@H]21)S(=O)(=O)c1ccc2nc(NC(=O)CN3CCCC3)sc2c1.O=C(O)C(=O)O [Compound 15]
fold resistance (FR), strain L [1]: 0.1 | fold resistance (FR), strain E [2]: 0.3 | fold resistance (FR), strain O [3]: 0.2 | fold resistance (FR), strain J [4]: 0.3 | fold resistance (FR), strain T [5]: 7.2 | fold resistance (FR), strain I [6]: 0.3 | fold resistance (FR), strain H [7]: 0.5 | fold resistance (FR), strain G [8]: 0.3 | fold resistance (FR), strain R [9]: 0.2 | fold resistance (FR), strain C [10]: 0.3 | fold resistance (FR), strain K [11]: 0.3 | fold resistance (FR), strain P [12]: 0.1 | fold resistance (FR), strain A [13]: 0.3 | fold resistance (FR), strain B [14]: 0.2 | fold resistance (FR), strain S [15]: 0.8 | fold resistance (FR), strain F [16]: 0.5 | fold resistance (FR), strain D [17]: 0.3 | fold resistance (FR), strain Q [18]: 0.2 | fold resistance (FR), strain N [19]: 0.4 | fold resistance (FR), strain M [20]: 0.2

CC(C)CN(C[C@@H](O)[C@H](Cc1ccccc1)NC(=O)O[C@H]1CCOC1)S(=O)(=O)c1ccc2nc(NC(=O)CN(C)C)sc2c1 [Compound 34]
fold resistance (FR), strain L [1]: 1.2 | fold resistance (FR), strain E [2]: 4.5 | fold resistance (FR), strain O [3]: 5.0 | fold resistance (FR), strain J [4]: 5.8 | fold resistance (FR), strain T [5]: 802.7 | fold resistance (FR), strain I [6]: 5.6 | fold resistance (FR), strain H [7]: 11.4 | fold resistance (FR), strain G [8]: 3.2 | fold resistance (FR), strain R [9]: 1.1 | fold resistance (FR), strain C [10]: 5.5 | fold resistance (FR), strain K [11]: 1.3 | fold resistance (FR), strain P [12]: 0.9 | fold resistance (FR), strain A [13]: 5.0 | fold resistance (FR), strain B [14]: 5.9 | fold resistance (FR), strain S [15]: 99.6 | fold resistance (FR), strain F [16]: 61.9 | fold resistance (FR), strain D [17]: 6.6 | fold resistance (FR), strain Q [18]: 4.0 | fold resistance (FR), strain N [19]: 4.0 | fold resistance (FR), strain M [20]: 1.2
